One series deals with T1, 229E Mpro (Human coronavirus 229E, UniProt P0C6X1).
T1 construct: Mpro
Kind of series: 229E Mpro assay (Table 3). It counts as biochemical, Human Coronavirus (HCov) 229E.

The next series deals with HCoV 229E. Kind of series: HCoV 229E cytopathic effect (CPE) assay, CellTiter Glo. In kind it is cell-based, Human Coronavirus (HCov) 229E. The conditions noted are these: protection from virus-induced CPE. For orientation: Protection from cytopathic effect is a common read-out in antiviral testing.
Series [1] has as its target COVID-19 (nCoV-2019, SARS-CoV2) Mpro (Severe acute respiratory syndrome coronavirus 2, UniProt P0DTD1). Description: SARS-CoV2 Mpro enzymatic assay. In kind it is biochemical. The settings on record: 25 nM Mpro, 25 μM substrate.

T1 sequence (P0C6X1 2966-3267): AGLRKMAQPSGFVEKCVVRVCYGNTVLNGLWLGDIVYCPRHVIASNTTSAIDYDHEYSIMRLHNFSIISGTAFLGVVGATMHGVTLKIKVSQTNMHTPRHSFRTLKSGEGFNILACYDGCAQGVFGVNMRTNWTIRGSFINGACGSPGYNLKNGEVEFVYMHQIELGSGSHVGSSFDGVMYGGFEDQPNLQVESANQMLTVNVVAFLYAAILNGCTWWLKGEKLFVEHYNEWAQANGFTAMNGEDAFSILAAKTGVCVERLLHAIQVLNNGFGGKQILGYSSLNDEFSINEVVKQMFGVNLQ
Protocol for 229E Mpro: Compounds are assayed using standard methods to assess compound activity and IC50. […] The assay buffer contains 20 mM of Tris-HCl (pH 7.3), 100 mM of NaCl, 1 mM of EDTA, 5 mM of TCEP and 0.1% BSA.
The compounds are added to an assay plate.
IC50 values of compounds are calculated with the GraphPad Prism software using the nonlinear regression model of log(inhibitor) vs. response—Variable slope (four parameters). The inhibition activity is calculated using the formula below, IC50 values is calculated using the Inhibition % data. Inhibition %=[(Sample−Average ZPE)/(Average HPE−Average ZPE)]*100%^# • ^#HEP: Hundred percent effect controls. […] Containing enzyme+substrate, no compound. • Sample: Compound activity testing wells. Containing compound+enzyme+substrate. • BG: Compound background control wells. Containing compound+substrate, no enzyme.
Protocol for HCoV 229E: The antiviral activity of compounds is calculated based on the protection of the virus-induced CPE at each concentration normalized by the virus control.
Reagents and instruments used in this assay include luminescent cell viability assay kit CellTiter Glo (Promega) and Microplate Reader Synergy2 (BioTek).
Cytopathic effect (CPE) is measured by CellTiter Glo following the manufacturer's manual. The antiviral activity of compounds is calculated based on the protection of the virus-induced CPE at each concentration normalized by the virus control.

`CC(C)CC(NC(=O)c1nc2ncccc2[nH]1)C(=O)NC(C#N)CC1CCNC1=O` (single isomer, unassigned) [130 (Isomer 1)]: the CC50 (in general, the concentration at which the toxic effect on the cells reaches its halfway point) with Cell viability is greater than 30000 nM.

Regarding `COc1cccc2[nH]c(C(=O)NC(CC(C)(F)F)C(=O)NC(C#N)CC3CCNC3=O)cc12` (single isomer, unassigned) [497 (Isomer 2)], the EC50 on 229E Mpro and in the series on HCoV 229E was less than 2000 nM each time. With `COc1cccc2[nH]c(C(=O)N3CC4(C[C@H]3C(=O)N[C@H](C#N)C[C@@H]3CCCNC3=O)CC(F)(F)C4)cc12` (single isomer, unassigned) [723 (Isomer 1)], the EC50 (in general, the midpoint of the concentration-response curve) at 229E Mpro was 10000 to 30000 nM. Also, in series [1], the IC50 (as a rule, the concentration that gives 50% inhibition) is 10000 to 30000 nM. `COc1cccc2[nH]c(C(=O)N3CC4(C[C@H]3C(=O)N[C@H](C#N)C[C@@H]3CCCNC3=O)CC(F)(F)C4)cc12` (single isomer, unassigned) [723 (Isomer 2)] showed an EC50 at 229E Mpro of less than 2000 nM. In series [1], the 50% inhibitory concentration (IC50) is less than 2000 nM. The compound `N#C[C@H](C[C@@H]1CCCNC1=O)NC(=O)[C@@H]1CC2(CN1C(=O)c1cc3cccc(Cl)c3[nH]1)CC(F)(F)C2` (single isomer, unassigned) [743 (Isomer 1)] returned a concentration giving a half-maximal response (EC50) on 229E Mpro greater than 30000 nM. The compound further had a half-maximal inhibitory concentration (IC50) in series [1] greater than 30000 nM. For the compound `N#C[C@H](C[C@@H]1CCCNC1=O)NC(=O)[C@@H]1CC2(CN1C(=O)c1cc3cccc(Cl)c3[nH]1)CC(F)(F)C2` (single isomer, unassigned) [743 (Isomer 2)], the EC50 on 229E Mpro is less than 2000 nM. The compound also returned an IC50 in series [1] of less than 2000 nM. Compound `CC1(C)CCC(CC(C#N)NC(=O)[C@H](CC2CC2)NC(=O)c2cc3cccc(Cl)c3[nH]2)C(=O)N1` (single isomer, unassigned) [749A (Isomer 1)] came in with a concentration for half-maximal inhibition (IC50) in series [1] of less than 2000 nM. `COC(=O)NS(=O)(=O)n1nccc1C(=O)NC(CC1CC1)C(=O)NC(C#N)CC1CCCNC1=O` (single isomer, unassigned) [787A (Isomer 2)] registered a concentration giving a half-maximal response (EC50) on 229E Mpro of 2000 to 10000 nM. The same compound had a 50% inhibitory concentration (IC50) in series [1] of less than 2000 nM. On 229E Mpro, `CC1(C)CC(C[C@@H](C#N)NC(=O)[C@H](CC2CC2)NC(=O)c2cc3cccc(Cl)c3[nH]2)C(=O)N1` (single isomer, unassigned) [1053 (Isomer 3)] yielded a half-maximal effective concentration (EC50) of 2000 to 10000 nM. Same read-out and setting: to `CC1(C)CC(CC(C#N)NC(=O)C(CC2CC2)NC(=O)c2cc3cccc(Cl)c3[nH]2)C(=O)N1` (single isomer, unassigned) [1053 (Isomer 4)] belongs less than 2000 nM.

At 229E Mpro, `COc1cccc2[nH]c(C(=O)N[C@H](CC3CC3)C(=O)N[C@H](C#N)C[C@@H]3CCC(C)(C)NC3=O)cc12` (single isomer, unassigned; isomer 1) [787A (Isomer 1)] showed a half-maximal effective concentration (EC50) of 2000 to 10000 nM. The same measure, in the same setting: with `N#C[C@H](C[C@@H]1CCNC1=O)NC(=O)[C@@H]1CS[C@H]2CC[C@H](NC(=O)OCc3ccccc3)C(=O)N21` [Compound 457, Benzyl((3R,6S,8aS)-3-(((S)-1-cyano-2-((S)-2-oxopyrrolidin-3-yl)ethyl)carbamoyl)-5-oxohexahydro-2H-thiazolo[3,2-a]pyridin-6-yl)carbamate] the figure was greater than 30000 nM. Still for that read-out and setting: with `Cc1cc(C(=O)N[C@H]2CC[C@@H]3SC[C@@H](C(=O)N[C@H](C#N)C[C@@H]4CCNC4=O)N3C2=O)no1` [Compound 459, N-((3R,6S,8aS)-3-(((S)-1-cyano-2-((S)-2-oxopyrrolidin-3-yl)ethyl)carbamoyl)-5-oxohexahydro-2H-thiazolo[3,2-a]pyridin-6-yl)-5-methylisoxazole-3-carboxamide] the figure was greater than 30000 nM; with `N#C[C@H](C[C@@H]1CCNC1=O)NC(=O)[C@H](CC1CC1)NC(=O)c1nc2c(Cl)cc(Cl)cc2[nH]1` [Compound 525, 4,6-dichloro-N-[(1S)-2-[[(1S)-1-cyano-2-[(3S)-2-oxopyrrolidin-3-yl]ethyl]amino]-1-(cyclopropylmethyl)-2-oxo-ethyl]-1H-benzimidazole-2-carboxamide], less than 2000 nM. The same measure, in the same setting: with `N#C[C@H](C[C@@H]1CCNC1=O)NC(=O)[C@H](CC1CC1)NC(=O)c1cc2ccc(Cl)cc2[nH]1` [Compound 529, 6-chloro-N-[(1S)-2-[[(1S)-1-cyano-2-[(3S)-2-oxopyrrolidin-3-yl]ethyl]amino]-1-(cyclopropylmethyl)-2-oxo-ethyl]-1H-indole-2-carboxamide] the figure was less than 2000 nM; with `N#C[C@H](C[C@@H]1CCNC1=O)NC(=O)[C@H](CC1CC1)NC(=O)c1cc2c(Cl)ccc(Cl)c2[nH]1` [Compound 691, 4,7-dichloro-N-[(1S)-2-[[(1S)-1-cyano-2-[(3S)-2-oxopyrrolidin-3-yl]ethyl]amino]-1-(cyclopropylmethyl)-2-oxo-ethyl]-1H-indole-2-carboxamide], less than 2000 nM; with `COc1cc(Cl)c2[nH]c(C(=O)N[C@@H](CC3CC3)C(=O)N[C@H](C#N)C[C@@H]3CCNC3=O)cc2c1` [Compound 695, 7-chloro-N-[(1S)-2-[[(1S)-1-cyano-2-[(3S)-2-oxopyrrolidin-3-yl]ethyl]amino]-1-(cyclopropylmethyl)-2-oxo-ethyl]-5-methoxy-1H-indole-2-carboxamide], less than 2000 nM.

The record behind these values is patent US12145911B2, “Inhibitors of cysteine proteases and methods of use thereof” (priority 2020, dated 2024).
